In brackets after ≈: the same amount, converted by molar mass.
Legend:
different cell lines = system: different cell lines; parameters: method as in PMID 38731527; settings: across different cell lines, racemic form; cited from earlier work
HeLa cells [1] = test: NRU cell viability assay, HeLa; format: cell-based, human; settings: Homo sapiens, 24 h
Protocol: (§1) The murine Swiss albino fibroblast (3T3), the immortal human keratinocyte (HaCaT), the squamous cell carcinoma (A431), the human epithelial carcinoma (HeLa) and the human breast adenocarcinoma (MCF-7) cell lines were sourced from Celltec UB (Barcelona, Spain). All cells were maintained and grown in DMEM medium (4.5 g/L glucose) supplemented with 10% (v/v) FBS, 2 mM L-glutamine, 100 U/mL penicillin and 100 μg/mL streptomycin at 37 °C, 5% CO2. Cells were routinely cultured in 75 cm^2 culture flasks and were trypsinized using trypsin-EDTA when the cells reached approximately 80%. Cell concentration in the resulting suspension was assessed using the trypan blue assay, which enables direct discrimination between viable (unstained) and non-viable (blue) cells.
(§2) T3 and HaCaT cells (1 × 10^5 cells/mL), along with A431, HeLa, and MCF-7 cells (5 × 10^4 cells/mL), were cultured at defined seeding densities in the 60 central wells of a 96-well plate. Cells were first incubated for 24 h under standard incubator conditions (5% CO2, 37 °C). After this period, the culture medium was removed, and the cells were incubated for an additional 24 h with their corresponding compound solutions (1 mg/mL) previously diluted in a minimum amount of DMF (dimethylformamide) and then in DMEM medium supplemented with 5% FBS (100 µL) at the required concentration range (20 to 250 µg/mL). Cell viability following exposure to the lactam derivatives was evaluated using two complementary assays: NRU and MTT.
(§3) The neutral red uptake (NRU) assay is based on the accumulation of dye in the lysosomes of viable cells. After the cells were incubated for 24 h with the corresponding systems, the medium was removed, and the solutions were incubated with the NR dye (Sigma-Aldrich, St. Louis, MO, USA) solution (50 µg/mL) dissolved in the medium, without FBS and without phenol red (Lonza, Verviers, Belgium), for 3 h. Cells were then washed with sterile PBS, followed by the addition of 100 µL of a solution containing 50% absolute ethanol and 1% acetic acid in distilled water to extract the dye. To promote the total dissolution of the dye, plates were placed in a microtiter-plate shaker for 5 min at room temperature. The absorbance of the resulting solutions was measured at 550 nm (Bio-Rad 550 microplate reader, Bio-Rad California, Hercules, CA, USA). Finally, the effect of each treatment was calculated as the percentage of dye uptake by viable cells relative to the control cells (cells without any treatment). Finally, the effect of each treatment was calculated as the percentage of dye retained by viable cells compared with untreated control cells.
(§4) The half-maximal inhibitory concentration (IC50) values for the different formulations, across cell lines and experimental endpoints, were obtained by fitting the concentration-dependent viability curves. […] These findings reflect the very low cytotoxicity of the compounds toward these cell lines.

A431 cells [2] = test: MTT cell viability assay, A431; format: cell-based; settings: Homo sapiens, A-431, 24 h
Protocol: as §1, §2
(§5) Only living cells can reduce the yellow tetrazolium salt 3-(4,5-dimethyl-2-thiazolyl)-2,5-diphenyltetrazolium bromide (MTT) to insoluble purple formazan crystals. After a 24 h incubation of the cells with their corresponding NPs, the medium was removed and 100 µL of MTT (Sigma-Aldrich, St. Louis, MO, USA) in PBS (5 mg/mL) diluted 1:10 in culture medium without phenol red and without FBS (Lonza, Verviers, Belgium) was added to the cells. After 3 h of incubation, the medium was removed. Thereafter, 100 µL of DMSO (Sigma-Aldrich, St. Louis, MO, USA) was added to each well to dissolve the purple formazan crystals. Agitation and absorbance measurements of the extracted solution were carried out under the same conditions described for the NRU assay. The effect of each treatment was then expressed as the percentage of tetrazolium salt reduction by viable cells relative to untreated controls.
as §4

MCF-7 cells [3] = test: NRU cell viability assay, MCF-7; format: cell-based, human; settings: Homo sapiens, MCF7; MCF-7, NRU, 24 h
Protocol: as §1, §2, §3, §4

A431 cells [4] = test: NRU cell viability assay, A431; format: cell-based, human; settings: Homo sapiens, A-431, 24 h
Protocol: as §1, §2, §3, §4

3T3 cells [5] = test: MTT cell viability assay, 3T3; format: cell-based; settings: Mus musculus, NIH3T3; 3T3, MTT, 24 h
Protocol: as §1, §2, §5, §4

Hemolysis assay = format: cell-based; settings: human, human erythrocyte suspension, pH 7.4, 10 and 80 µg/mL
Protocol: Human blood samples were obtained from the Banc de Sang i Teixits de Barcelona (Barcelona, Spain) under the Catalan Department of Health. Blood was collected in tubes containing the anticoagulant EDTA-K3. Samples were centrifuged at 3000 rpm and 4 °C for 10 min (Megafuge 2.0 R, Heraeus Instruments, Hanau, Germany) to promote sedimentation, after which plasma was carefully eliminated using a Pasteur pipette. The remaining pellet was washed with PBS (pH 7.4) three times to remove residual leukocytes and platelets while concentrating erythrocytes. After the final wash, the erythrocyte pellet was resuspended in PBS (pH 7.4) at a 1:1 ratio to achieve a final erythrocyte concentration of 8 × 10^9 cells/mL.
The hemolysis assay is used to evaluate the ability of the tested compounds to disrupt erythrocyte membranes. Stock solutions of each compound were prepared in PBS (pH 7.4) at a concentration of 1 mg/mL. Volumes ranging from 10 to 80 μL were transferred into polystyrene tubes, followed by the addition of 25 µL of the erythrocyte suspension, bringing the total volume to 1 mL. The samples were incubated at room temperature under gentle rotation and subsequently centrifuged at 10,000 rpm for 5 min. The absorbance of the resulting supernatants at 540 nm (Shimadzu UV-160A, Shimadzu, Duisburg, Germany) was measured and compared with that of the positive control (erythrocytes hemolyzed with distilled water) and the negative control (erythrocytes suspension in PBS, pH 7.4).
The degree of hemolysis was determined using the following equation:Hemolysis (%) = 100 × (Abs − Abs0)/(Abs100 − Abs0) where Abs, Abs0 and Abs100 are the absorbance of the test samples, of the suspension treated with isotonic phosphate–buffered saline (PBS) and of the suspension of complete hemolysis treated with distilled water, respectively.

HeLa cells [6] = test: MTT cell viability assay, HeLa; format: cell-based; settings: Homo sapiens, 24 h
Protocol: as §1, §2, §5, §4

MCF-7 cells [7] = test: MTT cell viability assay, MCF-7; format: cell-based; settings: Homo sapiens, MCF7; MCF-7, MTT, 24 h
Protocol: as §1, §2, §5, §4

[8] = system: 3T3, HaCaT, A431, HeLa and MCF-7 cells; test: Cell viability assays (MTT and NRU), summary across the cell panel; format: cell-based; settings: for IC50: MTT and NRU, summary statement over cell lines
Protocol: as §1, §2
as §3, with “Cells were then washed with sterile PBS, followed by the addition of 100 µL of a solution containing 50% absolute ethanol and 1% acetic acid in distilled water to extract the dye. To promote the total dissolution of the dye, plates were placed in a microtiter-plate shaker for 5 min at room temperature.” left out
(§6) Only living cells can reduce the yellow tetrazolium salt 3-(4,5-dimethyl-2-thiazolyl)-2,5-diphenyltetrazolium bromide (MTT) to insoluble purple formazan crystals. […] Agitation and absorbance measurements of the extracted solution were carried out under the same conditions described for the NRU assay. The effect of each treatment was then expressed as the percentage of tetrazolium salt reduction by viable cells relative to untreated controls. […]

[9] = as above; format: cell-based; settings: MTT, most cell lines, highest tested concentration
Protocol: as §1, §2
as §3, with “Cells were then washed with sterile PBS, followed by the addition of 100 µL of a solution containing 50% absolute ethanol and 1% acetic acid in distilled water to extract the dye. To promote the total dissolution of the dye, plates were placed in a microtiter-plate shaker for 5 min at room temperature.” left out
as §6

HaCaT cells [10] = test: MTT cell viability assay, HaCaT; format: cell-based; settings: Homo sapiens, 24 h
Protocol: as §1, §2, §5, §4

3T3 cells [11] = test: NRU cell viability assay, 3T3; format: cell-based; settings: Mus musculus, NIH3T3; 3T3, NRU, 24 h
Protocol: as §1, §2
as §3, with “[…]” for “control cells.”

HaCaT cells [12] = test: NRU cell viability assay, HaCaT; format: cell-based; settings: Homo sapiens, 24 h
Protocol: as §1, §2
as §3, with “[…]” for “control cells.”

A431 tumor cells = system: A431 tumor cells; parameters: method as in PMID 40283925; settings: racemic form; cited from earlier work
zebrafish = system: zebrafish; parameters: method as in PMID 40283925; settings: tested previously in zebrafish; cited from earlier work
3T3 fibroblasts = system: 3T3 fibroblasts; parameters: method as in PMID 40283925; settings: normal 3T3 fibroblasts, racemic form; cited from earlier work

| IC50 (HeLa cells [1]) [µg/mL] | IC50 (A431 cells [2]) [µg/mL] | IC50 (MCF-7 cells [3]) [µg/mL] | IC50 (A431 cells [4]) [µg/mL] | IC50 (HeLa cells [6]) [µg/mL] | IC50 (MCF-7 cells [7]) [µg/mL] | Structure (SMILES) | IC50 (different cell lines) [µg/mL] | IC50 (3T3 cells [5]) [µg/mL] | hemolysis (Hemolysis assay) [%] | IC50 [8] [µg/mL] | cell survival ([8]; NRU, several lines, 250 µg/mL) | viability at 24 h, 250 µg/mL [9] [%] | IC50 (HaCaT cells [10]) [µg/mL] | IC50 (3T3 cells [11]) [µg/mL] | IC50 (HaCaT cells [12]) [µg/mL] | IC50 (A431 tumor cells) [µg/mL] | LC50 (zebrafish) [µg/mL] | IC50 (3T3 fibroblasts) [µg/mL] |
| --- | --- | --- | --- | --- | --- | --- | --- | --- | --- | --- | --- | --- | --- | --- | --- | --- | --- | --- |
| – | – | – | – | – | – | CC(C)(C)N1CC(CCl)C(Cl)(Cl)C1=O (stereo not drawn) [compound 2] | 100 to 250 | – | – | – | – | – | – | – | – | – | – | – |
| 214 (≈ 786 µM) | 170 (≈ 624 µM) | > 250 | 123 (≈ 452 µM) | > 250 | > 250 | C[C@@H](c1ccccc1)N1C[C@H](C)C(Cl)(Cl)C1=O [epi-3] | – | 68.1 (≈ 250 µM) | < 2 | > 68 | around 60% | ≥ 80 | > 250 | 77.2 (≈ 284 µM) | > 250 | – | – | – |
| > 250 | 177 (≈ 651 µM) | > 250 | 61.7 (≈ 227 µM) | > 250 | > 250 | C[C@H](c1ccccc1)N1C[C@@H](C)C(Cl)(Cl)C1=O [epi-4] | – | 145 (≈ 534 µM) | < 2 | > 100 | – | – | > 250 | 153 (≈ 563 µM) | > 250 | – | – | – |
| – | – | – | – | – | – | CC(C)(C)N1C(=O)C(Cl)(Cl)C1c1ccccc1 (stereo not drawn) [β-lactam 1] | – | – | – | – | – | – | – | – | – | 35 to 71 | 14.9 (≈ 54.7 µM) | > 210 |

Source: publication PMC12736018, “Stereoselective Cytotoxicity of Enantiopure 3,3-Dichloro-γ-lactams: Correlating In Vitro Activity with In Vivo Tolerability” (Molecules, 2025)
